Values joined by “and” are separate entries in the source; they are usually repeats but may differ in a detail not shown here. Identical values can stand only once. Like-named read-outs stand apart in the source and are kept apart here.
Columns and labels:
Blatta lateralis = assay: Contact test on non-porous tile, Blatta lateralis; assay type: in vivo; parameters: Mortality %: concentration or dose not given beside the values; conditions: for Mortality %: 25° C, insects on treated tile; for Mortality %/time (h) (application): Table 37, Blatta lateralis, concentrations in mg/ml in label
Description: 1 ml of Composition 24 was distributed on the tile. […] 1 ml of Composition 20c was distributed on a tile. […] 1 ml of Composition 20d was distributed on a tile.
1 ml of Composition 24 was distributed on the tile. […] 1 ml of Composition 28 was distributed on a tile. […] Each experiment (A-B) was conducted in duplicate.
1 ml of Composition 24 was distributed on the tile. […] 1 ml of Composition 21 was distributed on a tile.
1 ml of Composition 4b was distributed on the tile. […] 1 ml of Composition 31c was distributed on a tile. […] 1 ml of Composition 31d was distributed on a tile. […] 1 ml of Composition 31d was distributed on a tile.
1 ml of Composition 24 was distributed on the tile. […] 1 ml of Composition 35 was distributed on a tile. […] 1 ml of Composition 40b was distributed on a tile. […] 1 ml of Composition 42 was distributed on a tile.

Blatta orientalis = conditions: for synergizing effect on Cypermethrin / Mortality %/time (h) (application): Blatta orientalis; for synergizing effect on Cypermethrin: synergist applied with Cypermethrin; for Mortality %: insects on treated tile; for Mortality %/time (h) (application): Table 37, concentrations in mg/ml in label
Description: Method: Contact test on non-porous tile measuring 400 cm^2 at a temperature of 28° C. Test duration: up to 72 hours after exposure of the insect to the insecticidal active substance.
(§1) Three tests were performed in parallel, A, B, and C, as follows: • A) Comparative. 1 ml of Composition 2 was applied to the tile. After waiting for the complete evaporation of the solvent, 10 cockroaches were placed on top of the treated tile, starting the test. • B) According to the invention. 1 ml of Composition 8b was distributed on the tile. After waiting for the complete evaporation of the solvent, 1 ml of Composition 2 was added to the same tile. Subsequently, after waiting for the solvent to evaporate, 10 cockroaches were placed on top of the treated tile, starting the test. • C) According to the invention. 1 ml of Composition 8b was distributed on a tile. After waiting for the complete evaporation of the solvent, 10 cockroaches were placed for 30 minutes on top of the treated tile. At the end of the 30 minutes, the cockroaches were transferred to an untreated area.
Method: Contact test on non-porous tile measuring 400 cm^2 at a temperature of 28° C. Test duration: up to 120 hours after exposure of the insect to the insecticidal active substance.
as §1, with “4a” for “2”, “8d” for “8b”, “After” for “Subsequently, after”
Six tests were performed in parallel, A, B, C, D, E and F, as follows: • A) Comparative. 1 ml of Composition 9b was distributed on the tile. After waiting for the complete evaporation of the solvent, 1 ml of Composition 4a was added to the same tile. Subsequently, after waiting for the solvent to evaporate, 10 cockroaches were placed on top of the treated tile, starting the test. • B) Comparative. 1 ml of Composition 9b was distributed on a tile. After waiting for the complete evaporation of the solvent, 10 cockroaches were placed for 30 minutes on top of the treated tile. At the end of the 30 minutes, the cockroaches were transferred to an untreated area. […] 1 ml of Composition 10b was distributed on the tile. After waiting for the complete evaporation of the solvent, 1 ml of Composition 4a was added to the same tile. Subsequently, after waiting for the solvent to evaporate, 10 cockroaches were placed on top of the treated tile, starting the test. • D) Comparative. 1 ml of Composition 10b was distributed on a tile. After waiting for the complete evaporation of the solvent, 10 cockroaches were placed for 30 minutes on top of the treated tile. At the end of the 30 minutes, the cockroaches were transferred to an untreated area. […] 1 ml of Composition 8d was distributed on the tile. After waiting for the complete evaporation of the solvent, 1 ml of Composition 4a was added to the same tile. Subsequently, after waiting for the solvent to evaporate, 10 cockroaches were placed on top of the treated tile, starting the test. • F) According to the invention. 1 ml of Composition 8d was distributed on a tile. After waiting for the complete evaporation of the solvent, 10 cockroaches were placed for 30 minutes on top of the treated tile. At the end of the 30 minutes, the cockroaches were transferred to an untreated area.

Musca domestica L. = assay: Contact test on non-porous tile, Musca domestica; assay type: in vivo; conditions: for synergizing effect on Cypermethrin: Musca domestica L., synergist applied with Cypermethrin; for mortality at 680 µg/mL: Musca domestica, single substance alone, 0.68 mg/ml, 48 h, read-out: Mortality %/time (h)
Description: 1 ml of Composition 1 was applied to the tile. […] 1 ml of Composition 8a was distributed on the tile. […] 1 ml of Composition 8a was distributed on a tile. […] At the end of the 30 minutes, the flies were transferred to an untreated area.
1 ml of Composition 3 was applied to the tile. […] 1 ml of Composition 8c was distributed on the tile. […] 1 ml of Composition 8c was distributed on a tile. […] At the end of the 30 minutes, the flies were transferred to an untreated area.
1 ml of Composition 9a was distributed on the tile. […] 1 ml of Composition 9a was distributed on a tile. […] At the end of the 30 minutes, the flies were transferred to an untreated area. […] 1 ml of Composition 10a was distributed on the tile. […] 1 ml of Composition 10a was distributed on a tile. […] At the end of the 30 minutes, the flies were transferred to an untreated area. […] 1 ml of Composition 8c was distributed on the tile. […] 1 ml of Composition 8c was distributed on a tile. […] At the end of the 30 minutes, the flies were transferred to an untreated area.
1 ml of Composition 5a, was distributed on the tile. […] 1 ml of Composition 6a was distributed on the tile. […] 1 ml of Composition 7a was distributed on the tile.
1 ml of Composition 3 was distributed on the tile. […] 1 ml of Composition 9a was distributed on the tile. […] 1 ml of Composition 11a was distributed on a tile. […] 1 ml of Composition 12a was distributed on a tile.
1 ml of Composition 3 was distributed on the tile. […] 1 ml of Composition 17a was distributed on a tile. […] 1 ml of Composition 18a was distributed on a tile. […] Each experiment (A-C) was conducted in duplicate.
1 ml of Composition 23a was distributed on the tile. […] 1 ml of Composition 20a was distributed on a tile. […] Each experiment (A-B) was conducted in duplicate.
1 ml of Composition 3 was distributed on the tile. […] 1 ml of Composition 25a was distributed on a tile. […] Each experiment (A-B) was conducted in duplicate.
1 ml of Composition 23a was distributed on the tile. […] 1 ml of Composition 27a was distributed on a tile. […] Each experiment (A-B) was conducted in duplicate.
1 ml of Composition 26a was distributed on a tile. […] 1 ml of Composition 26b was distributed on a tile. […] 1 ml of Composition 26c was distributed on a tile.
1 ml of Composition 22a was distributed on a tile. […] 1 ml of Composition 22b was distributed on a tile. […] 1 ml of Composition 22c was distributed on a tile.
1 ml of Composition 23a was distributed on the tile. […] 1 ml of Composition 44a was distributed on a tile.
1 ml of Composition 33 was distributed on a tile. […] 1 ml of Composition 33 was distributed on a tile. […] At the end of the 30 minutes, the flies were transferred to an untreated area.
1 ml of Composition 1 was distributed on the tile. […] 1 ml of Composition 34 was distributed on a tile. […] 1 ml of Composition 34 was distributed on a tile. […] At the end of the 30 minutes, the flies were transferred to an untreated area.
1 ml of Composition 3 was distributed on the tile. […] 1 ml of Composition 31a was distributed on a tile. […] 1 ml of Composition 31b was distributed on a tile. […] 1 ml of Composition 31b was distributed on a tile. […] At the end of the 30 minutes, the flies were transferred to an untreated area. […] 1 ml of Composition 38a was distributed on a tile. […] 1 ml of Composition 38a was distributed on a tile. […] At the end of the 30 minutes, the flies were transferred to an untreated area.
G) According to the invention. 1 ml of Composition 40a was distributed on a tile. […] Subsequently, after waiting for the solvent to evaporate, 10 flies were placed on top of the treated til

Compound: CC1(C)C(C=C(Cl)Cl)C1C(=O)OC(C#N)c1cccc(Oc2ccccc2)c1 (stereo not shown) [Composition 4b, Cypermethrin]
- Mortality % (Blatta lateralis; Example 31, 24 h): 0%
- Mortality % (Blatta lateralis; Example 31, 48 h): 40%
- Mortality %/time (h) (application) (Blatta lateralis; 48 h): 40/48 ^ %

Compound: CCCCC(O)CO (stereo not shown) [Composition 31d, 1,2-hexandiol]
- Mortality %/time (h) (application) (Blatta lateralis; 48 h, listed as 1,2-hexandiol (0.07)): 20/48 ^ %

Compound: CCCCC(CC)COC(=O)OCC(CC)CCCC (stereo not shown) [bis(2-ethylhexyl)-carbonate]
- synergizing effect on Cypermethrin (Blatta orientalis): synergizing effect
- synergizing effect on Cypermethrin (Musca domestica L.): high synergizing effect
- mortality at 680 µg/mL (Musca domestica L.): 19%

Compound: CC1(C)C(C=C(Cl)Cl)C1C(=O)OC(C#N)c1cccc(Oc2ccccc2)c1 (stereo not shown) [Composition 4a, Cypermethrin]
- Mortality % (Blatta orientalis; Example 4, 28° C, 24 h): 30%
- Mortality % (Blatta orientalis; Example 4, 28° C, 48 h): 35%
- Mortality % (Blatta orientalis; Example 4, 28° C, 120 h): 35%
- Mortality % (Blatta orientalis; Example 10, 21° C, 24 h): 20%
- Mortality % (Blatta orientalis; Example 10, 21° C, 48 h): 35%
- Mortality % (Blatta orientalis; Example 11, 21° C, 48 h): 20%
- Mortality % (Blatta orientalis; Example 11, 21° C, 72 h): 25%
- Mortality % (Blatta orientalis; Example 11, 21° C, 96 h): 33%
- Mortality % (Blatta orientalis; Example 13, 21° C, 48 h): 60%
- Mortality % (Blatta orientalis; Example 13, 21° C, 72 h): 62%
- Mortality % (Blatta orientalis; Example 20, 21° C, 24 h): 5%
- Mortality % (Blatta orientalis; Example 20, 21° C, 72 h): 25%
- Mortality % (Blatta orientalis; Example 32, 25° C, 24 h): 10%
- Mortality % (Blatta orientalis; Example 32, 25° C, 48 h): 35%
- Mortality % (Blatta orientalis; Example 32, 25° C, 72 h): 45%
- Mortality %/time (h) (application) (Blatta orientalis; 48 h, listed as Cypermethrin (0.20)): 35/48 ^ % and 20/48 ^ %

Compound: O=[N+]([O-])NC1=NCCN1Cc1ccc(Cl)nc1 [Composition 24, Imidacloprid]
- Mortality % (Blatta lateralis; Example 16, 48 h): 20%
- Mortality % (Blatta lateralis; Example 22, 48 h): 20%
- Mortality % (Blatta lateralis; Example 26, 48 h): 20%
- Mortality % (Blatta lateralis; Example 33, 48 h): 20%
- Mortality %/time (h) (application) (Blatta lateralis; 48 h): 20/48 ^ %

Compound: CCCCC(O)CO (stereo not shown) [1,2-hexandiol (0.84), 1,2-hexandiol]
- Mortality %/time (h) (application) (Blatta orientalis; 48 h): 0/48 ^ %

Compound: CCCCCCCCCCC(CO)CCCCCCCC (stereo not shown) [2-octyldodecanol]
- synergizing effect on Cypermethrin (Blatta orientalis): superior to that shown with PBO
- synergizing effect on Cypermethrin (Musca domestica L.): synergistic effect, comparable to the activity shown by PBO
- mortality at 680 µg/mL (Musca domestica L.): 20%

Compound: Alcohol oleic [Composition 20b]
- Mortality %/time (h) (application) (Blatta orientalis; 48 h): 0/48 ^ %

Compound: CCCCCCCCOC(=O)OCCCCCCCC [Composition 18b, Dioctyl carbonate]
- Mortality %/time (h) (application) (Blatta orientalis; 48 h): 0/48 ^ %

Compound: CCCCCCCCOC(C)=O [n-Octyl acetate]
- synergizing effect on Cypermethrin (Blatta orientalis): excellent-fine synergizing effect

Compound: COP(=O)(OC)SCn1c(=O)oc2cc(Cl)cnc21 [Composition 23b, Azamethiphos]
- Mortality % (Blatta orientalis; Example 15, 21° C, 24 h): 10%
- Mortality % (Blatta orientalis; Example 15, 21° C, 48 h): 17%
- Mortality % (Blatta orientalis; Example 15, 21° C, 72 h): 23%
- Mortality % (Blatta orientalis; Example 21, 25° C, 48 h): 17%
- Mortality % (Blatta orientalis; Example 25, 21° C, 24 h): 10%
- Mortality % (Blatta orientalis; Example 25, 21° C, 48 h): 17%
- Mortality % (Blatta orientalis; Example 25, 21° C, 72 h): 23%
- Mortality %/time (h) (application) (Blatta orientalis; 48 h): 17/48 ^ %

Reference: patent US20260215418A1, “HYDROCARBON ALCOHOLS AND THEIR DERIVATIVES AS SYNERGISTS IN PESTICIDE ACTIVITY” (priority 2022, published 2026)
